Key:
[1] = Sink Conditions dissolution testing of Formulation C5-12; assay type: physicochemical; settings: N = 6
Experimental: The release profiles of Formulation C5-12 of Example 1 were evaluated in a Sink Conditions dissolution study. The study was conducted in 900 mL of dissolution medium using a standard USP dissolution Apparatus 2 (paddle) operating at 100 RPM at 37±0.5° C. The dissolution medium was a 0.05 M sodium phosphate buffer pH 6.8 with 15 mM cTAB as a surfactant.

[2] = Human pharmacokinetic study, Example 4 Arm II (single dose, crossover); assay type: in vivo; settings: both sexes, human, oral, Example 4 Arm II, single dose, non-fasting, N = 13; for half-life / AUC(0-t) / AUC(0-inf) / Tmax: blood; for AUC(0-t): read-out: AUCt, geometric mean; for AUC(0-inf): read-out: AUC∞, geometric mean; for Tmax: read-out: Tmax; for concentration at 24 h / Cmax: in vivo; for concentration at 24 h: read-out: C24, geometric mean; for Cmax: read-out: Cmax, geometric mean
Experimental: Formulation C5-12 and a second formulation were tested in Arm II of the study. Adult male and female subjects (N=30 for combined Arm I and Arm II studies) in general good health were selected to participate in the study according to the selection criteria. Subjects meeting the selection criteria were randomly assigned to one of the Regimen sequences as shown below in Table 4-A.
Study drug was administered as provided below in Table 4-B.
Each study regimen was taken orally with approximately 240 mL of water approximately 30 minutes after the start of standardized breakfast. Study regimens were administered orally in the morning on Study Day 1 of each period. For Regimen A the evening dose of the Single Tablet was taken orally with approximately 240 mL of water approximately 30 minutes after the start of the evening snack. Serial blood samples for pharmacokinetic analysis were collected 72 hours after dosing in each period.
The data presented in Tables 4-C through 4-G are preliminary data and are subject to database lock and final data verification.

[3] = Human pharmacokinetic study, Example 4 Arm III (14-day multiple dose, steady state); assay type: in vivo
[4] = Human pharmacokinetic study, Example 5 Arm I (single dose, replicated crossover); assay type: in vivo
Experimental: (§1) A Phase 1, non-fasting, open-label, two-arm, four-period, randomized, crossover study was conducted to compare and characterize the pharmacokinetics of (i) Triple Tablet when co-administered with Single Tablet, and (ii) Formulation C5-12 as discussed below. Part 1 was a single dose, two-treatment, randomized, four period, two sequence replicated crossover study with 88 subjects. Doses in the four periods were separated by at least 10 days. Part 2 was a multiple-dose, two-treatment, two period, randomized crossover study with 66 subjects. Dosing in each period was 14 days and doses in the two periods were separated by at least 10 days.
(§2) Adult male and female subjects in general good health were selected to participate in the study according to the selection criteria. Subjects meeting the selection criteria were randomly assigned to one of the sequences of Regimens A and B (four sequences for Arm I and two sequences for Arm II) as shown below in Table 5-A.
(§3) Study drug was administered as provided below in Table 5-B.
(§4) Each study regimen was taken orally with approximately 240 mL of water approximately 30 minutes after the start of standardized breakfast. Study regimens were administered orally in the morning on Study Day 1 of each period. Serial blood samples for pharmacokinetic analysis were collected 72 hours after dosing in each period.
Tables 5-C, 5-D, 5-E, and 5-F below report the Arm I pharmacokinetic data for Formulation C5-12 (separately reported for each of Compounds 1, 2, 3, and 4). Table 5-G presents the results of a relative bioavailability and 90% confidence interval analysis of the pharmacokinetic data for Formulation C5-12 relative to the reference regimen. The data presented in Tables 5-C through 5-G are preliminary data and are subject to database lock and final data verification by the statistician.

[5] = Human pharmacokinetic study, Example 5 Arm II (multiple dose, crossover); assay type: in vivo; settings: Example 5 Arm II; for AUC: read-out: AUC24, geometric mean; for concentration at 24 h: read-out: C24, geometric mean; for Cmax: read-out: Cmax, geometric mean
Experimental: as §1, §2, §3, §4

[6] = Solubility (general statement); assay type: physicochemical; settings: aqueous
[7] = 3 Formulation C5-12 tablets, Regimen E (C5-12): three Formulation C5-12 tablets in the morning
[8] = Regimen A (reference regimen): two Triple Tablets + one Single Tablet morning, one Single Tablet evening
[9] = Formulation C5-12, Day 14 versus Day 1
[10] = human, in vivo, oral, 3 Formulation C5-12 tablets daily, three Formulation C5-12 tablets daily for 14 days, non-fasting, Day 14, N = 14
[11] = Formulation C5-12 relative to the reference regimen
[12] = multiple dose 14 days, non-fasting, Regimen B (reference regimen): two Triple Tablets + one Single Tablet morning, one Single Tablet evening, N = 63
[13] = both sexes, human, blood, oral, 3 film-coated Formulation C5-12 tablets daily, multiple dose 14 days, non-fasting, Regimen A (C5-12): three film-coated Formulation C5-12 tablets daily, N = 63
[14] = both sexes, human, blood, oral, multiple dose 14 days, non-fasting, Regimen B (reference regimen): two Triple Tablets + one Single Tablet morning, one Single Tablet evening, N = 63

Cc1cnc(C(=O)N[C@H]2CCCCC/C=C\[C@@H]3C[C@@]3(C(=O)NS(=O)(=O)C3CC3)NC(=O)[C@@H]3C[C@@H](Oc4nc5ccccc5c5ccccc45)CN3C2=O)cn1 [Compound 1, (2R,6S,13aS,14aR,16aS,Z)-N-(cyclopropylsulfonyl)-6-(5-methylpyrazine-2-carboxamido)-5,16-dioxo-2-(phenanthridin-6-yloxy)-1,2,3,5,6,7,8,9,10,11,13a,14,14a,15,16,16a-hexadecahydrocyclopropa[e]pyrrolo[1,2-a][1,4]diazacyclopentadecine-14a-carboxamide]
% Released ([1]; 1 hour, 900 mL 0.05 M sodium phosphate buffer pH 6.8, 15 mM cTAB, USP Apparatus 2, 100 RPM, 37 °C): 54% | % Released ([1]; 4 hours, pH 6.8 buffer, 15 mM cTAB): 98% | % Released ([1]; 6 hours, pH 6.8 buffer, 15 mM cTAB): 99% | % Released ([1]; 8 hours, pH 6.8 buffer, 15 mM cTAB): 102% | % Released ([1]; 12 hours, pH 6.8 buffer, 15 mM cTAB): 102% | % Released ([1]; 16 hours, pH 6.8 buffer, 15 mM cTAB): 101% | half-life [2, 7]: 5.1 h | AUC(0-t) [2, 7]: 4310 ng·h/mL | AUC(0-inf) [2, 7]: 4330 ng·h/mL | Tmax [2, 7]: 5.7 h | half-life [2, 8]: 5.2 h | AUC(0-t) [2, 8]: 4670 ng·h/mL | AUC(0-inf) [2, 8]: 4690 ng·h/mL | Tmax [2, 8]: 4.8 h | concentration at 24 h [2, 7]: 24.5 ng/mL | Cmax [2, 7]: 647 ng/mL | concentration at 24 h [2, 8]: 24.3 ng/mL | Cmax [2, 8]: 900 ng/mL | AUC24, RATIO [3, 9]: 2.28 | C24, RATIO [3, 9]: 1.00 | Cmax, RATIO [3, 9]: 2.52 | Tmax ([3]; human, in vivo, oral, 3 Formulation C5-12 tablets daily, three Formulation C5-12 tablets daily for 14 days, non-fasting, Day 1, N = 14): 6.7 h | AUC ([3]; human, in vivo, oral, 3 Formulation C5-12 tablets daily, three Formulation C5-12 tablets daily for 14 days, non-fasting, Day 1, N = 14, read-out: AUC24, geometric mean): 4640 ng·h/mL | concentration at 24 h ([3]; human, in vivo, oral, 3 Formulation C5-12 tablets daily, three Formulation C5-12 tablets daily for 14 days, non-fasting, Day 1, N = 14, read-out: C24, geometric mean): 33.7 ng/mL | Cmax ([3]; human, in vivo, oral, 3 Formulation C5-12 tablets daily, three Formulation C5-12 tablets daily for 14 days, non-fasting, Day 1, N = 14, read-out: Cmax, geometric mean): 651 ng/mL | Tmax [3, 10]: 5.1 h | half-life [3, 10]: 4.6 h | AUC ([3]; human, in vivo, oral, 3 Formulation C5-12 tablets daily, three Formulation C5-12 tablets daily for 14 days, non-fasting, Day 14, N = 14, read-out: AUC24, geometric mean): 10600 ng·h/mL | concentration at 24 h ([3]; human, in vivo, oral, 3 Formulation C5-12 tablets daily, three Formulation C5-12 tablets daily for 14 days, non-fasting, Day 14, N = 14, read-out: C24, geometric mean): 33.7 ng/mL | Cmax ([3]; human, in vivo, oral, 3 Formulation C5-12 tablets daily, three Formulation C5-12 tablets daily for 14 days, non-fasting, Day 14, N = 14, read-out: Cmax, geometric mean): 1640 ng/mL | β ([3]; three Formulation C5-12 tablets daily for 14 days, non-fasting, Day 14, N = 14): 0.151 h⁻¹ | Cmax lower than Cmax for the reference regimen [4, 11]: 30% | Cmax ([4]; both sexes, human, blood, oral, 3 film-coated Formulation C5-12 tablets, single dose, non-fasting, Regimen A (C5-12): three film-coated Formulation C5-12 tablets, N = 172, read-out: Cmax, geometric mean): 618 ng/mL | AUC(0-t) ([4]; both sexes, human, in vivo, oral, 3 film-coated Formulation C5-12 tablets, single dose, non-fasting, Regimen A (C5-12): three film-coated Formulation C5-12 tablets, N = 172, read-out: AUCt, geometric mean): 4460 ng·h/mL | AUC(0-inf) ([4]; both sexes, human, in vivo, oral, 3 film-coated Formulation C5-12 tablets, single dose, non-fasting, Regimen A (C5-12): three film-coated Formulation C5-12 tablets, N = 172, read-out: AUC∞, geometric mean): 4490 ng·h/mL | Tmax ([4]; both sexes, human, in vivo, oral, 3 film-coated Formulation C5-12 tablets, single dose, non-fasting, Regimen A (C5-12): three film-coated Formulation C5-12 tablets, N = 172, read-out: Tmax, first value (geometric mean)): 5 h | half-life ([4]; both sexes, human, in vivo, oral, single dose, non-fasting, Regimen B (reference regimen): two Triple Tablets + one Single Tablet morning, one Single Tablet evening, N = 171): 6.02 h | AUC(0-t) ([4]; both sexes, human, in vivo, oral, single dose, non-fasting, Regimen B (reference regimen): two Triple Tablets + one Single Tablet morning, one Single Tablet evening, N = 171, read-out: AUCt, geometric mean): 5470 ng·h/mL | AUC(0-inf) ([4]; both sexes, human, in vivo, oral, single dose, non-fasting, Regimen B (reference regimen): two Triple Tablets + one Single Tablet morning, one Single Tablet evening, N = 171, read-out: AUC∞, geometric mean): 5490 ng·h/mL | Tmax ([4]; both sexes, human, in vivo, oral, single dose, non-fasting, Regimen B (reference regimen): two Triple Tablets + one Single Tablet morning, one Single Tablet evening, N = 171, read-out: Tmax, first value (geometric mean)): 5 h | t1/2 ([4]; single dose, non-fasting, Regimen A (C5-12): three film-coated Formulation C5-12 tablets, N = 172): 6.15 h | Cmax, geometric mean ([4]; single dose, non-fasting, Regimen B (reference regimen): two Triple Tablets + one Single Tablet morning, one Single Tablet evening, N = 171): 935 ng/mL | β, geometric mean ([5]; multiple dose 14 days, non-fasting, Regimen A (C5-12): three film-coated Formulation C5-12 tablets daily, N = 63): 0.129 h⁻¹ | Tmax, first value (geometric mean) [5, 12]: 4.0 h | β, geometric mean [5, 12]: 0.128 h⁻¹ | Exposures (C24,ss and AUC24,ss) versus the reference regimen ([5]; Formulation C5-12, point estimate and 90% confidence interval for the GMR within 0.80-1.25): bioequivalent | Cmax,ss lower than Cmax,ss for the reference regimen [5, 11]: 27% | half-life [5, 13]: 5.2 h | AUC [5, 13]: 8900 ng·h/mL | concentration at 24 h [5, 13]: 34.6 ng/mL | Cmax [5, 13]: 1500 ng/mL | Tmax ([5]; both sexes, human, blood, oral, 3 film-coated Formulation C5-12 tablets daily, multiple dose 14 days, non-fasting, Regimen A (C5-12): three film-coated Formulation C5-12 tablets daily, N = 63, read-out: Tmax, first value (geometric mean)): 5 h | half-life [5, 14]: 5.3 h | AUC [5, 14]: 9240 ng·h/mL | concentration at 24 h [5, 14]: 30.4 ng/mL | Cmax [5, 14]: 1950 ng/mL | bioavailability at 24 h ([5]; both sexes, human, blood, oral, Regimen A (C5-12) vs. B (reference regimen), read-out: Relative bioavailability, C24, point estimate): 106% | Solubility [6]: low solubility
